Marks after values point to notes of the source that are not given here.
Experiments:
[1] = Lipophilicity as RM values by RP-TLC; format: physicochemical; details: methanol/water 70/30, 24 °C, average of at least five measurements
Description: Since lipophilicity is a significant physicochemical property determining distribution, bioavailability, metabolic activity and elimination, we tried to determine experimentally the lipophilicity of the new substances by a RPTLC method as RM values (Table 1) and to compare them with the corresponding theoretically calculated clog p values in n-octanol-buffer. This is considered to be a reliable, fast and convenient method for expressing lipophilicity. Lipophilicity (Table 2), was theoretically calculated as Clog p values in n-octanol-buffer by the CLOGP Programme of Biobyte Corp..
Reversed phase TLC (RP-TLC) was performed on silica gel plates impregnated with 5% (v/v) liquid paraffin in light petroleum ether. The mobile phase was a methanol/water mixture (70/30, v/v). The plates were developed in closed chromatography tanks saturated with the mobile phase at 24 °C. Spots were detected under UV light. RM values were determined from the corresponding Rf values (from five individual measurements) using the equation RM = log [(1/Rf) − 1] (Table 1).

[2] = Inhibition of linoleic acid lipid peroxidation (AAPH); details: % inhibition at 100 μM; pH 7.4, 37 °C
Method: Production of conjugated diene hydroperoxide by oxidation of sodium linoleate in an aqueous dispersion is monitored at 234 nm. AAPH is used as a free radical initiator [12, 24]. Ten microlitres of the 16 mM sodium linoleate solution was added to the UV cuvette containing 930 μL of 0.05 M phosphate buffer, pH 7.4 prethermostated at 37 °C. The oxidation reaction was initiated at 37 °C under air by the addition of 40 mM AAPH solution (50 μL). Ten μL of the tested compounds were added in the mixture. Lipid oxidation was measured in the presence of the same level of DMSO. The rate of oxidation at 37 °C was monitored by recording the increase in absorption at 234 nm caused by conjugated diene hydroperoxides. The results were compared to the appropriate standard inhibitor trolox (63%) (Table 1).

soybean lipoxygenase = target: T1, soybean lipoxygenase (Glycine max, UniProt P08170); experiment: Soybean lipoxygenase inhibition in vitro; format: biochemical
T1 construct: purchased Sigma Chemical, Co. (St. Louis, MO, USA)
T1 sequence (P08170 1-839): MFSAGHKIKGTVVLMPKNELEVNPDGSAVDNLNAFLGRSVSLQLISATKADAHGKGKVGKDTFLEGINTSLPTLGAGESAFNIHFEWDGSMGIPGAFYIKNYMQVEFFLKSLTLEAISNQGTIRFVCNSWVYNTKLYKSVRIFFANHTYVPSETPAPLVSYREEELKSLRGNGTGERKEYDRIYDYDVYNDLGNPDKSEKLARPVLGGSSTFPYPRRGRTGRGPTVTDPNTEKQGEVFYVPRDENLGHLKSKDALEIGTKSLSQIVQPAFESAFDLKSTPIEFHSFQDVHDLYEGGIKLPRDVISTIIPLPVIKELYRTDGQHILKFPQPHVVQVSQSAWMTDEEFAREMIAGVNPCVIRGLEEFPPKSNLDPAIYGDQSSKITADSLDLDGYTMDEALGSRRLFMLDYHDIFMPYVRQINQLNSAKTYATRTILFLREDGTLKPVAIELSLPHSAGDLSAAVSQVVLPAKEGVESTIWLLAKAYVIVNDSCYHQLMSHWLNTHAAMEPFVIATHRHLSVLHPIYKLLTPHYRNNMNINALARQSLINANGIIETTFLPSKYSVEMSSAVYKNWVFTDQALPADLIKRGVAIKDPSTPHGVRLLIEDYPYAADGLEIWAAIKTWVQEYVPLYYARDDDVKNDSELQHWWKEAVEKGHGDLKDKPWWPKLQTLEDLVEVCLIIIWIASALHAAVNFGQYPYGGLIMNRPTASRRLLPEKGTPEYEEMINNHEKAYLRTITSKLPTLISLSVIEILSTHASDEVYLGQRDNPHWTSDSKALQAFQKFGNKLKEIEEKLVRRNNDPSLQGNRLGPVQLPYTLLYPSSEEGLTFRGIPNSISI
Method: DMSO solution of the tested compound was incubated with sodium linoleate (0.1 mM) and 0.2 mL of soybean lipoxygenase solution (1/9 × 10^−4 w/v in saline) in buffer pH 9 (tris) and at room temperature. […] The results are given in Table 1 expressed as IC50 values or % inhibition at 100 μM.

[3] = system: acetic acid-induced writhing; experiment: Antinociceptive screen (writhing test); format: in vivo, Wistar rats; details: i.p. 30 min before 0.6% acetic acid, writhes counted over 30 min
Method: Anti-inflammatory tests were conducted on Fisher-344 inbred rats of ca. 200 g body weight whereas antinociception and motor and sensory functions after sciatic nerve crash were performed on Wistar rats. Both sexes were used. Females pregnant were excluded. Each group was composed of 6 animals. The animals, which have been bred in our laboratory, were housed under standard conditions and received a diet of commercial food pellets and water ad libitum during the maintenance. Our studies were carried out in accordance with recognised guidelines on animal experimentation.
[…] Controls received the liquid vehicle only. All the in vivo experiments were repeated at least in triplicate and were subjected to statistic analysis using the student’s t-test.
The writhing reflex was used. The test compounds were administered i.p. 30 min prior to the i.p. administration of 1 mL/100 g body weight of 0.6% acetic acid. […] After 5 min, the number of stretches characterized by repeated contractions of the abdominal musculature accompanied by extension of the hind limbs was counted every 5 min for the next 30 min. […] The % antinociceptive activity (a:a) was calculated as: % a:a = (n − n'/n) × 100 (a: a analgesic activity, n average number of writhes of control group, n' average number in the test group).

[4] = In vitro stability under acidic and basic conditions; format: physicochemical; details: pH 3, 4.5 and 9, 37 °C, 24 h
Method: In an attempt to mimic the acidic/basic conditions in the gastrointestinal route, measurements at pH: (i) 3; (ii) 4.5 and (iii) 9 were performed. The pH value was adjusted with the appropriate buffer (CH3COONa/CH3COOH) to 4.5 and 3 and Tris to pH 9. 20 μL of the tested compounds in DMSO and buffer 980 μL (4.5 or 3 pH) incubated at 37 °C for 24 h. The stability of the compounds was monitored chromatographically after 3 and 9 h. After 24 h, the incubated solution (in all cases) was treated with chloroform (1 mL). The organic layer was analyzed spectrophotometrically.

With `CC(=O)Nc1ccc(OC(=O)/C=C/c2cccc(Oc3ccccc3)c2)cc1` [Compound 2a, (E)-4-Acetamidophenyl 3-(3-phenoxyphenyl)acrylate] as the compound, how does the “RM (±S.D.)” value [1] read?
The value was 0.276 ± 0.006.

And the “AAPH % (% inhibition of lipid peroxidation)” value [2]?
Its value is 90%.

What about the IC50 (soybean lipoxygenase) of the same compound?
Its IC50 is 100 µM.

And the “% ANA (in vivo analgesic-antinociceptive activity)” value ([3]; 0.01 mmol/0.1 kg)?
Its value is 91 ** %.

And the inhibition in vivo at 0.01 mmol/0.1 kg ([3]; Rattus norvegicus, ip, 0.5 h, read-out: % ANA (in vivo analgesic-antinociceptive activity))?
The inhibition in vivo at 0.01 mmol/0.1 kg was 91%.

What about the “stability under acidic and basic conditions” value [4] of the same compound?
Its value is “confirmed the stability”.

Reference: article PMC6271731, “Multitarget Molecular Hybrids of Cinnamic Acids” (Molecules, 2014)
